Experimental data as given in patent US20260041640A1 (INCYCLIX BIO, LLC, priority 2023, published 2026).
Where two headings read alike, the source gives them in different places.

Experiments:
[1] = Plasma protein binding, rat; assay type: in vitro ADME
Source text: Additionally, the whole blood-to-plasma ratio (KWB/P) in humans is 6.20, which also exceeds the other species tested (Table 7).

[2] = Organic solubility of INX-315 by visual inspection; assay type: physicochemical; set-up: key to Soluble at 4 wt % / Soluble at 2 wt % / Soluble at 1 wt % / Soluble at 0.5 wt % / Soluble at 0.4 wt % / Soluble at 0.25 wt %: ✓, soluble; X, insoluble
[3] = Non-Sink Dissolution Method (gastric to intestinal transfer); assay type: physicochemical
Method: The Gastric Media comprised 0.01 N HCl (pH 2.0) at a dose of 1500 μgA/mL. Timepoints tested were 10 min and 25 min following microcentrifugation of 100 μL aliquots diluted 5× in MeOH at 18,500 g. The Intestinal Media comprised 0.5 wt % SIF in Phosphate Buffer (pH 6.5) at a dose of 500 μgA/mL. Timepoints tested were 5 min, 30 min, 45 min, 70 min, 180 min, and 24 hr (post-transfer) following microcentrifugation of 100 μL aliquots diluted 5× in MeOH at 18,500 g. Timepoints tested were 5 min, 45 min, and 24 hr (post-transfer) following ultracentrifugation of 100 μL aliquots diluted 5× in MeOH at 470,000 g. The supernatants were assayed by HPLC.

[4] = tested on: LU5202 [small cell lung cancer (SCLC)] patient-derived xenograft (PDX) model; assay type: in vivo
Method: 8-week-old NOD/SCID female mice (n=59) were split into two cohorts. A total of 29 mice were enrolled in cohort 1 of the study. A total of 30 mice were enrolled in […] of the study. When the average tumor volume reached 150-250 mm^3, all animals were randomly allocated to the 6 different study groups using Study Log software (Table 24). Animals were monitored weekly for palpable tumors, or any changes in appearance or behavior. Once tumors were palpable, tumors were measured at least once weekly using calipers. Body weight was measured at least 2 times per week following randomization and initiation of treatment.

[5] = tested on: recurrent advanced/metastatic cancer; experiment: First-in-human clinical study: preliminary antitumor activity; assay type: in vivo
Method: Cohort 1 enrollment of 6 subjects dosed at 100 mg oral QD was completed in October of 2023.

[6] = Toxicity and toxicokinetics studies, rat; assay type: in vivo, Sprague Dawley rats
Method: Nominal dose values and sampling times were used for calculations. Any concentration reported as BLQ (LLOQ<1.0 ng/mL) was set equal to zero. Toxicokinetic analyses included Cmax, Tmax, AUC0-24, t1/2, RA Cmax, and RA AUC0-24.
Following this, human dose exposure was simulated using a combined whole blood and plasma compartment PK model using allometry and whole blood parameter estimates for the absorption rate constants and bioavailability per animal species. Absolute dose administration was used for modeling. V1, CL, V2, and Q parameters were extrapolated to human using allometric scaling. CL, Q by exponent equaled 0.818. V1, V2 by exponent equaled 1.03. Human body weight was set to 75 kg. Absorption rate constant (KA) was in reasonable ranges in mouse, rat, and dog, with values of 0.44, 0.53, and 0.18 (1/hr), respectively.
All INX-315 tablets were taken at approximately the same time(s) each day.

CDK2/cyclin E = CDK2/cyclin E (Homo sapiens, UniProt P24941); conditions: intracellular; read-out: Nanobret IC50 CDK2/cyclin E; cited from earlier work
Ovcar-3 = conditions: BLU-222: based on Ovcar-3 cell cycle data (maximum G1 arrest); read-out: Cellular IC50; cited from earlier work
[7] = Cohort 1, 100 mg QD, 6 subjects

NS(=O)(=O)c1ccc(Nc2ncc3cc4n(c3n2)C2(CCCCC2)C(=O)NN4)cc1 [INX-315]
fraction unbound [1]: 0.018 | Soluble at 0.25 wt % ([2]; 1:9 DMSO:H2O): X | Soluble at 0.4 wt % ([2]; 1:9 DMSO:H2O): X | Soluble at 0.5 wt % ([2]; 1:9 DMSO:H2O): X | Soluble at 1 wt % ([2]; 1:9 DMSO:H2O): X | Soluble at 2 wt % ([2]; 1:9 DMSO:H2O): X | Soluble at 4 wt % ([2]; 1:9 DMSO:H2O): X | Soluble at 0.25 wt % ([2]; 3:1 DCM:MeOH): X | Soluble at 0.4 wt % ([2]; 3:1 DCM:MeOH): X | Soluble at 0.5 wt % ([2]; 3:1 DCM:MeOH): X | Soluble at 1 wt % ([2]; 3:1 DCM:MeOH): X | Soluble at 2 wt % ([2]; 3:1 DCM:MeOH): X | Soluble at 4 wt % ([2]; 3:1 DCM:MeOH): X | Soluble at 0.25 wt % ([2]; 4:1 ACN:H2O): X | Soluble at 0.4 wt % ([2]; 4:1 ACN:H2O): X | Soluble at 0.5 wt % ([2]; 4:1 ACN:H2O): X | Soluble at 1 wt % ([2]; 4:1 ACN:H2O): X | Soluble at 2 wt % ([2]; 4:1 ACN:H2O): X | Soluble at 4 wt % ([2]; 4:1 ACN:H2O): X | Soluble at 0.25 wt % ([2]; 4:1 THF:H2O): ✓ | Soluble at 0.4 wt % ([2]; 4:1 THF:H2O): ✓ | Soluble at 0.5 wt % ([2]; 4:1 THF:H2O): ✓ | Soluble at 1 wt % ([2]; 4:1 THF:H2O): ✓ | Soluble at 2 wt % ([2]; 4:1 THF:H2O): ✓ | Soluble at 4 wt % ([2]; 4:1 THF:H2O): ✓ | Soluble at 0.25 wt % ([2]; 5:1 DCM:H2O): X | Soluble at 0.4 wt % ([2]; 5:1 DCM:H2O): X | Soluble at 0.5 wt % ([2]; 5:1 DCM:H2O): X | Soluble at 1 wt % ([2]; 5:1 DCM:H2O): X | Soluble at 2 wt % ([2]; 5:1 DCM:H2O): X | Soluble at 4 wt % ([2]; 5:1 DCM:H2O): X | Soluble at 0.25 wt % ([2]; 8:2 Acetone:H2O): ✓ | Soluble at 0.4 wt % ([2]; 8:2 Acetone:H2O): ✓ | Soluble at 0.5 wt % ([2]; 8:2 Acetone:H2O): X | Soluble at 1 wt % ([2]; 8:2 Acetone:H2O): X | Soluble at 2 wt % ([2]; 8:2 Acetone:H2O): X | Soluble at 4 wt % ([2]; 8:2 Acetone:H2O): X | Organic solubility (soluble up to) ([2]; 9:1 ACN:H2O): up to 0.5 wt % | Soluble at 0.25 wt % ([2]; 9:1 ACN:H2O): ✓ | Soluble at 0.4 wt % ([2]; 9:1 ACN:H2O): ✓ | Soluble at 0.5 wt % ([2]; 9:1 ACN:H2O): ✓ | Soluble at 1 wt % ([2]; 9:1 ACN:H2O): X | Soluble at 2 wt % ([2]; 9:1 ACN:H2O): X | Soluble at 4 wt % ([2]; 9:1 ACN:H2O): X | Soluble at 0.25 wt % ([2]; 9:1 Acetone:H2O): ✓ | Soluble at 0.4 wt % ([2]; 9:1 Acetone:H2O): ✓ | Soluble at 0.5 wt % ([2]; 9:1 Acetone:H2O): X | Soluble at 1 wt % ([2]; 9:1 Acetone:H2O): X | Soluble at 2 wt % ([2]; 9:1 Acetone:H2O): X | Soluble at 4 wt % ([2]; 9:1 Acetone:H2O): X | Organic solubility (soluble up to) ([2]; Acetone): up to 0.5 wt % | Soluble at 0.25 wt % ([2]; Acetone): ✓ | Soluble at 0.4 wt % ([2]; Acetone): ✓ | Soluble at 0.5 wt % ([2]; Acetone): ✓ | Soluble at 1 wt % ([2]; Acetone): X | Soluble at 2 wt % ([2]; Acetone): X | Soluble at 4 wt % ([2]; Acetone): X | Soluble at 0.25 wt % ([2]; Methanol): ✓ | Soluble at 0.4 wt % ([2]; Methanol): X | Soluble at 0.5 wt % ([2]; Methanol): X | Soluble at 1 wt % ([2]; Methanol): X | Soluble at 2 wt % ([2]; Methanol): X | Soluble at 4 wt % ([2]; Methanol): X | Non-Sink Dissolution, Micro @ 5 min ([3]; microcentrifuged (total drug), 5 min): 13 | Non-Sink Dissolution, Micro @ 60 min ([3]; microcentrifuged (total drug), 60 min): 12 | Non-Sink Dissolution, Micro @ 180 min ([3]; microcentrifuged (total drug), 180 min): 13 | Non-Sink Dissolution, Ultra @ 5 min ([3]; ultracentrifuged (dissolved drug), 5 min): 13 | Non-Sink Dissolution, Ultra @ 60 min ([3]; ultracentrifuged (dissolved drug), 60 min): 12 | Non-Sink Dissolution, Ultra @ 180 min ([3]; ultracentrifuged (dissolved drug), 180 min): 12 | tumor growth inhibition ([4]; cohort 1, INX-315 100 mg/kg added to chemotherapy (cisplatin + etoposide)): 70% | body weight / tolerability ([4]; cohort 1, chemotherapy and INX-315): lost weight and did not tolerate the treatment well | tumor growth inhibition ([4]; cohort 1, monotherapy 100 mg/kg BID PO): 62% | tumor growth inhibition ([4]; cohort 1, monotherapy 150 mg/kg BID PO): 66% | tumor growth inhibition ([4]; cohort 2, INX-315 100 mg/kg added to chemotherapy): 94% | tumor growth inhibition ([4]; cohort 2, monotherapy 100 mg/kg BID PO): 70% | tumor growth inhibition ([4]; cohort 2, monotherapy 150 mg/kg BID PO): 87% | partial response (PR) subjects [5, 7]: 1 subjects | progressive disease (PD) subjects [5, 7]: 2 subjects | stable disease (SD) subjects [5, 7]: 3 subjects | response ([5]; Subject 101-001 (ER+/HER2− breast cancer), 100 mg QD): confirmed PR | decrease in TL ([5]; Subject 201-001, end of Cycle 2, 100 mg QD): 10% | bioavailability ([6]; both sexes, Sprague Dawley, rat, in vivo, po): 8% | Absorption rate constant (KA) ([6]; both, Sprague Dawley, rat, in vivo): 0.53 h⁻¹ | human equivalent dose (HED) of the no observed adverse effect level (NOAEL) ([6]; rats): 9730 mg/day | safety margin of 100 mg QD starting dose vs HED of NOAEL ([6]; rats): 97 fold | IC50 (CDK2/cyclin E): 2 nM | IC50 (Ovcar-3): < 100 nM
